Test results published in patent US20090098050A1, “CALCIUM BINDING PEPTIDES” (THE REGENTS OF THE UNVERSITY OF CALIFORNIA, priority 2005, published 2009).
No end group written: not given here.

Legend:
[1] = Tissue specific binding of DSS peptides and variants in human teeth (CLSM); details: 12.5 μM labeled peptide; for Tissue binding pattern in healthy tooth section: nondemineralized teeth
Description: FIG. 8: Fluorescence micrographs showing tissue specificity in the binding of DSS peptides and variants. Adult human teeth were exposed to 12.5 μM 5(6)-carboxyfluorescein-labeled peptide without demineralization, washed extensively, and imaged by CLSM. For each section, multiple scans were collected and assembled in an automated mode to generate panels of images representing an area of 13×13 mm, sufficient in most cases to encompass the whole section. The peptides used for each section are labeled beneath each panel, and within each panel the tooth is oriented with the root toward the top of the image and the crown toward the bottom. Tissue layers are labeled as follows: RTD=Root Tip Dentin; CPD=Circumpulpal Dentin; MD=Mantle Dentin; P=Pulp Cavity Wall; DEJ=Dentin-Enamel Junction; E=Enamel; BE=Basal Enamel; CE=Cortical Enamel; CL=Carious Lesion; PB=Periodontal Bone.
In order to investigate the tissue specificity of DSS peptide binding to tooth tissue, sections of human teeth were exposed to DSS peptides and variants, then imaged by CLSM as described in Example 2. The peptides utilized for these experiments were 8DSS, 8ASS, 8DAA, 8NAA, 4DSS, 4ESS, 4NSS, 4DTT, 4ETT, 4NTT, and 6DSS. Sagittal sections of human teeth extracted during normal clinical practice were polished and then incubated for ten minutes in a solution of the appropriate 5(6) carboxyfluorescein-labeled peptide (12.5 μM) containing 10 mM NaCl and 50 mM HEPES, pH 7.0. Control samples were prepared without peptide. Samples were washed extensively after treatment and imaged by CLSM using blue laser illumination (λ=488 nm) and a FITC emission filter, with identical camera and microscope settings for each sample. For each section, multiple scans were collected and assembled in an automated mode to generate panels of images representing an area of 13×13 mm, sufficient in most cases to encompass the whole section. […] Significant binding was also seen to the edges of the pulp cavity.

[2] = Binding of fluorescein-labeled peptides to hydroxyapatite nanocrystals (Langmuir isotherm); details: Langmuir fit; for KA, affinity constant of the peptide for the hydroxyapatite surface: fluorescein-labeled peptide 0-100 μM, 0.3 mg hydroxyapatite, ten minutes
Description: FIG. 1: Binding affinities of DSS and DSS variant peptides for hydroxyapatite and tooth surfaces. A-C. Fluorescein-labeled peptides at concentrations ranging from 0-100 μM were incubated with 0.3 mg of hydroxyapatite nanocrystals (specific surface area=100 m^2/g) for ten minutes, followed by removal of the hydroxyapatite by centrifugation. The amount of peptide in the mixture before and after hydroxyapatite removal was determined by Abs480. Isotherms were plotted and fit to the Langmuir equation to extract values for KA, a constant reflecting the affinity of the peptide for the hydroxyapatite surface. D. Sagitally sectioned human teeth were incubated with 12.5 μM 5(6) carboxyfluorescein-labeled 6DSS peptide for ten minutes, followed by rinsing. Peptide binding to tooth surfaces was visualized by Confocal Laser Scanning Microscopy (CLSM) using blue laser illumination (λA=488 nm) and a FITC emission filter. Left side, light colored region: dentin. Right side, dark colored region: enamel.
Four DSS peptides containing two (2DSS, SEQ ID NO:12), four (4DSS, SEQ ID NO:13), six (6DSS, SEQ ID NO:14), or eight(8DSS, SEQ ID NO:15) Asp-Ser-Ser (DSS) repeats were generated. Peptides were labeled with fluorescein, and various concentrations of the labeled peptides (0-100 μM) were mixed with a fixed amount (0.3 mg) of hydroxyapatite nanocrystals having a specific surface area of 100 m^2/g (Berkeley Advanced Biomaterials, Inc.). Samples were incubated for ten minutes, followed by removal of the hydroxyapatite by centrifugation. The amount of peptide in the mixture was measured both before and after hydroxyapatite removal by spectroscopic absorbance at 480 nm (the peak absorbance of the fluorescein label). The amount of peptide bound was calculated by comparing the ratio of the final (Af) and initial (Ai) absorbances to the initial concentration (P0) [Pbound=[…]]. Plots were generated illustrating the amount of peptide bound per m^2 of hydroxyapatite surface area versus concentration of unbound peptide at equilibrium. The resulting isotherms were fit to the Langmuir isotherm (x/m=(KANMaxCeq)/(1+KACeq)) (Calis 1995), which describes the binding activity of a molecule in terms of a combination of binding affinity (KA) and avidity (NMax). KA represents the affinity constant of the peptide for the hydroxyapatite surface. In this equation, x/m represents the molar amount of peptide bound per unit of hydroxyapatite surface area, NMax represents the maximum surface concentration (mol/m^2), and Ceq represents the molar concentration of unbound peptide at equilibrium. The Langmuir isotherm describes the binding of molecules to surfaces with the conditions that 1) all binding sites have the same affinity for the peptide, and 2) the peptide will form a monolayer on the surface but cannot accumulate to higher levels. The excellent fit of the Langmuir isotherm to the experimental data validates these conditions, and these affinity constants were used for comparisons between peptides.

[3] = Preferential binding to carious lesions in teeth (CLSM); parameters: species or system human; details: labeled peptide, settings optimized per sample
Description: FIG. 9: Fluorescence micrographs showing specific binding of DSS peptides and variants to carious lesions in teeth. Adult human teeth were exposed to 12.5 uM 5(6)-carboxyfluorescein-labeled peptide without demineralization, washed extensively, and imaged by CLSM. Microscope and camera settings were optimized separately for each sample. […] White traces on the right side of each panel identify the position of the tooth surface, while arrows indicate the position of the stained lesion.
Sections of human teeth containing obvious carious lesions, which consist of demineralized enamel, were polished and exposed to 5(6)-carboxyfluorescein-labeled DSS peptides and variants using the protocol described in Example 2. The sections were washed extensively and imaged by CLSM using blue laser illumination (λ=488 nm) and a FITC emission filter, with microscope and camera settings adjusted for each sample to optimize the signal detected from each peptide. The images were examined to identify the relative levels of peptide binding in healthy versus carious tissue. […] Given their ability to remineralize at sites of enamel degradation (Example 6), they can also be used to initiate remineralization at sites of enamel degradation such as caries or injury sites without causing inappropriate nucleation on healthy tissue surfaces.

Row | Substance | Tissue binding pattern in healthy tooth section [1] | KA, affinity constant of the peptide for the hydroxyapatite surface [2] | Specificity of binding to carious lesions versus surrounding healthy enamel [3] | Strength of staining of carious lesions [3] | NMax, maximum surface concentration (available binding sites on HA surface) [2] | Binding to carious lesion present in the sample [1] | Binding to fragment of periodontal bone attached to the sample [1]
1 | 4DTT: four repeat peptide containing more sterically hindered hydroxyl groups at second and third positions, SEQ. ID NO. 17 (DTTDTTDTTDTT; variant DSS four repeat peptide containing more sterically hindered hydroxyl groups at second and third positions, 4DTT) | binding patterns similar to those of 4DSS and 4ESS, though at sharply reduced levels | 161,000 M^−1 |  |  |  |  | 
2 | 4ETT: four repeat peptide containing more sterically hindered hydroxyl groups at second and third positions, SEQ. ID NO. 19 (ETTETTETTETT; variant DSS four repeat peptide containing more sterically hindered hydroxyl groups at second and third positions, 4ETT) | binding patterns similar to those of 4DSS and 4ESS, though at sharply reduced levels | 61,000 M^−1 | highly specific binding to carious lesions |  |  |  | 
3 | 8DAA: eight repeat peptide lacking hydroxyl groups at the second and third positions, SEQ. ID NO. 22 (DAADAADAADAADAADAADAADAA; variant DSS eight repeat peptide lacking hydroxyl group at seond and third positions, 8DAA) | primary binding to the root tip dentin and cortical enamel, as well as to the dentin-enamel junction and the pulp cavity wall | 300,000 M^−1 | highly specific binding to carious lesions | exceptionally strong staining of carious lesions |  |  | 
4 | 4ESS: four repeat peptide containing a longer sidechain at the first position, SEQ. ID NO. 16 (ESSESSESSESS; variant DSS four repeat peptide containing longer sidechain at first position, 4ESS) |  | 81,000 M^−1 | highly specific binding to carious lesions | exceptionally strong staining of carious lesions |  |  | 
5 | 4DSPS: partially phosphorylated four repeat DSS peptide, SEQ ID NO:25 (DSSDSSDSSDSS; also: partially phosphorylated, sites not given here) |  | 83,000 M^−1 |  |  | 1.2×10^−7 mol/m^2 |  | 
6 | 8NAA: eight repeat peptide lacking hydroxyl groups at the second and third positions, SEQ. ID NO. 23 (NAANAANAANAANAANAANAANAA; variant DSS eight repeat peptide lacking hydroxyl group at seond and third positions, 8NAA) | very little binding to any healthy tissue | 20,000 M^−1 | highly specific binding to carious lesions |  |  | did bind somewhat to a carious lesion | 
7 | 4NSS: four repeat peptide lacking a charged group at the first position, SEQ. ID NO. 20 (NSSNSSNSSNSS; variant DSS four repeat peptide lacking negatively charged group at first position, 4NSS) |  | 41,000 M^−1 | highly specific binding to carious lesions |  |  |  | 
8 | 4NAA: label printed only in b88, not defined; probably a misprint (NAANAANAANAA; variant DSS four repeat peptide lacking hydroxyl group at seond and third positions, 4NAA) |  |  |  | exceptionally strong staining of carious lesions |  |  | 
9 | 4NTT: four repeat peptide containing more sterically hindered hydroxyl groups at second and third positions, SEQ. ID NO. 18 (NTTNTTNTTNTT; variant DSS four repeat peptide containing more sterically hindered hydroxyl groups at second and third positions, 4NTT) | very low levels of binding to the healthy tooth tissue | 18,000 M^−1 |  |  |  |  | strong binding
10 | 2DSS: peptide containing two Asp-Ser-Ser (DSS) repeats, SEQ ID NO:12 (DSSDSS; calcium binding peptide containing two DSS repeats, 2DSS) |  | 57,000 M^−1 |  |  |  |  | 
11 | 8ASS: eight repeat peptide lacking a charged group at the first position, SEQ. ID NO. 21 (ASSASSASSASSASSASSASSASS; variant DSS eight repeat peptide lacking negatively charged group at first position, 8ASS) |  | 170,000 M^−1 | highly specific binding to carious lesions | exceptionally strong staining of carious lesions |  |  | 
12 | 4DSS: peptide containing four Asp-Ser-Ser (DSS) repeats, SEQ ID NO:13 (DSSDSSDSSDSS; calcium binding peptide containing four DSS repeats, 4DSS, (DSS)-4) | bound primarily to the mantle dentin | 94,000 M^−1 | highly specific binding to carious lesions | exceptionally strong staining of carious lesions | 5.8×10^−8 mol/m^2 |  | 
